Measured values: US6682931B2, “Recovering cryopreserved conifer embryogenic cultures” (MeadWestvaco Corporation, priority 1999, dated 2004)
Marks after values point to notes of the source that are not given here.

How the values were obtained:
Type in all cases: cell-based
[1] = test system: loblolly pine cell lines (G-05, K-12, E-117 and O-72); test: Mean culture fresh weight of embryogenic cultures retrieved from cryopreservation on post-cryopreservation recovery medium (Example 3); settings: for % Increase of average culture fresh weight over control without ABA: all seven cell lines; for Mean Culture Fresh Weight, average of cell lines: average of all seven cell lines (loblolly and pitch×loblolly hybrid); for Mean Culture Fresh Weight: 28 days after retrieval
From the text: (§1) Five different pine embryogenic cell lines chosen at random from a long-term cryogenic storage bank were initiated, grown as liquid embryogenic suspension cultures, and cryopreserved via the methods described in Examples 1 and 2. The five cell lines included: one pitch×loblolly pine interspecies hybrid cell line (AA-24) and four loblolly pine cell lines (G-05, K-12, E-117 and O-72). Also, two additional pitch×loblolly pine F1 hybrid cell lines (Q-01 and Q-39) were initiated, grown as liquid embryogenic suspension cultures, and cryopreserved via the methods described in Examples 1 and 2 except that the initiation and maintenance media contained 10.0 mg/l of ABA (as taught in U.S. Pat. No. 5,856,191). The seven cell lines were retrieved from cryogenic storage, thawed, and transferred, via the procedure described in Example 2. Each cell line was subjected to three post-cryopreservation medium treatments. The first treatment was a control (i.e., DCR1 medium without ABA), the second treatment was DCR1 medium with 10 mg/l of ABA, and the third treatment was DCR1 medium with 30 mg/l of ABA. There were four plates (each derived from an individual cryogenic vial) per treatment and cell line.
(§2) The embryogenic cultures on membranes were transferred after 24 hours from the temporary recovery medium onto the post-cryopreservation medium and thereafter, every 14 days to a new plate of the same post-cryopreservation medium. The culture environment during post-cryopreservation recovery and growth was 23° C. in the dark. At 28 days after retrieval from cryogenic storage the final fresh weight of the proliferating embryogenic culture was measured. The data were analyzed using the SAS GLM ANOVA statistical software program (Release 6.12 commercially available from the SAS Institute, Inc.), and the results are shown in Table III below.

[2] = test system: pitch×loblolly pine interspecies hybrid cell lines (AA-24, Q-01, Q-39); test: as above
From the text: as §1, §2

[3] = test system: loblolly pine embryogenic cell lines; test: Yield of stage 3 somatic embryos from embryogenic cultures retrieved from cryopreservation (Example 4); settings: for Total Number of Somatic Embryos Harvested: recovered on 30 mg/l ABA, nine weeks on embryo development medium
From the text: The purpose of this experiment was to determine whether addition of ABA to the post-cryopreservation culture medium improved the yield of somatic embryos harvested from the cultures after they were retrieved from cryogenic storage. The six loblolly pine cell lines retrieved from cryogenic storage in Example 1 were used in this experiment. Embryogenic tissue from each cell line was dispersed onto nylon membranes using liquid DCR1 medium (formulation in Table 1 without the GELRITE). Four ml of embryogenic culture retrieved from cryogenic storage of each cell line and treatment (both the no ABA and the 30 mg/l ABA post-cryopreservation recovery medium) was added to 5 ml of liquid DCR1 medium and dispersed by agitation. One ml aliquots of the suspension were dispensed using a sterile 5-ml pipette with a cotton plug. Each 1 ml aliquot was transferred to the surface of a sterile 4 cm nylon membrane positioned on top of two sterile Whatman No. 2 filter papers in the bottom of an empty 15×100 mm sterile plastic culture plate. The nylon membranes with the dispersed embryogenic cultures were placed on either DCR1 medium containing 30 mg/l ABA or the same medium without any ABA depending on their respective post-cryopreservation recovery medium treatments from which they were derived. […] The tissue on the nylon membranes was cultured for 5-6 days at 23° C. in the dark to induce proliferation from the newly dispersed cultures. The nylon membranes with tissue were then transferred to an embryo development medium (see Table IV below) as described in U.S. Pat. No. 5,731,204 (Rutter et al.), to test the yield of stage 3 cotyledonary somatic embryos. The plates with membranes containing the embryogenic cultures were incubated in the dark at 23° C. The nylon membranes with the embryogenic cultures were transferred to new plates containing the same fresh embryo development medium every three weeks. After a total of nine weeks, the number of stage 3 embryos was counted on each membrane, and the data were analyzed using SAS GLM ANOVA statistical software.

[4] = test system: loblolly pine (Pinus taeda) embryogenic cell lines; test: Percent increase in fresh weight of pine embryogenic cell lines retrieved from cryopreservation on post-cryopreservation recovery medium (Examples 1 and 2); settings: DCR1 + 30 mg/l ABA, 26 days after retrieval
[5] = all six cell lines A1-A6, 30 mg/l ABA

In the case of CC1=CC(=O)CC(C)(C)[C@@]1(O)/C=C/C(C)=C\C(=O)O [ABA, abscisic acid], the “% Increase of average culture fresh weight over control without ABA” value ([1]; 10 mg/l ABA) is reported as 35%, the “% Increase of average culture fresh weight over control without ABA” value ([1]; 30 mg/l ABA) is reported as 52%^a and the “Mean Culture Fresh Weight, average of cell lines” value ([1]; 10 mg/l ABA) is reported as 1.86 g. The “Mean Culture Fresh Weight, average of cell lines” value ([1]; 30 mg/l ABA) was 2.10^a g, the “Mean Culture Fresh Weight” value ([1]; cell line E-117, 10 mg/l ABA) was 0.38^a g and the “Mean Culture Fresh Weight” value ([1]; cell line E-117, 30 mg/l ABA) was 0.33 g. The “Mean fresh weight higher than control treatment without ABA” value ([1]; cell line G-05, 10 mg/l ABA) was 52%, the “Mean Culture Fresh Weight” value ([1]; cell line G-05, 10 mg/l ABA) was 3.82^a g and the “Mean fresh weight higher than control treatment without ABA” value ([1]; cell line G-05, 30 mg/l ABA) was 48%. For the same compound, the “Mean Culture Fresh Weight” value ([1]; cell line G-05, 30 mg/l ABA) was 3.73 g, the “Mean Culture Fresh Weight” value ([1]; cell line K-12, 10 mg/l ABA) was 0.55 g and the “Mean Culture Fresh Weight” value ([1]; cell line K-12, 30 mg/l ABA) was 1.09^a g. For the same compound, the “Mean Culture Fresh Weight” value ([1]; cell line O-72, 10 mg/l ABA) was 0.09 g, the “Mean Culture Fresh Weight” value ([1]; cell line O-72, 30 mg/l ABA) was 0.10^a g and the “Mean Culture Fresh Weight” value ([2]; cell line AA-24, 10 mg/l ABA, 28 days after retrieval) was 5.22 g. The “Mean Culture Fresh Weight” value ([2]; cell line AA-24, 30 mg/l ABA, 28 days after retrieval) was 5.45^a g, the “Mean Culture Fresh Weight” value ([2]; cell line Q-01 (initiated and maintained with 10.0 mg/l ABA), 10 mg/l ABA, 28 days) was 2.91^b g and the “Mean Culture Fresh Weight” value ([2]; cell line Q-01 (initiated and maintained with 10.0 mg/l ABA), 30 mg/l ABA, 28 days) was 3.81^ab g. The “Mean Culture Fresh Weight” value ([2]; cell line Q-39 (initiated and maintained with 10.0 mg/l ABA), 10 mg/l ABA, 28 days) was 0.01 g, the “Mean Culture Fresh Weight” value ([2]; cell line Q-39 (initiated and maintained with 10.0 mg/l ABA), 30 mg/l ABA, 28 days) was 0.17 g and the “% Increase of total number of somatic embryos harvested over control without ABA” value [3, 5] was 332%. The “Total Number of Somatic Embryos Harvested, total of the 6 cell lines” value [3, 5] was 588, the “Total Number of Somatic Embryos Harvested” value ([3]; cell line A1) was 404 and the “Total Number of Somatic Embryos Harvested” value ([3]; cell line A2) was 82. The “Total Number of Somatic Embryos Harvested” value ([3]; cell line A3) was 0, the “Total Number of Somatic Embryos Harvested” value ([3]; cell line A4) was 43 and the “Total Number of Somatic Embryos Harvested” value ([3]; cell line A5) was 15. The “Total Number of Somatic Embryos Harvested” value ([3]; cell line A6) was 44, the “Average Percent Increase in Fresh Weight” value ([4]; cell line B1) was 195% and the “Average Percent Increase in Fresh Weight” value ([4]; cell line B2) was 29%. The “Average Percent Increase in Fresh Weight” value ([4]; cell line B4) was 34%.
